Laboratory results published in publication PMC10584170, “Machine learning-based phenotypic imaging to characterise the targetable biology of Plasmodium falciparum male gametocytes for the development of transmission-blocking antimalarials” (PLOS Pathogens, 2023).
Where two headings read alike, the source gives them in different places.

Legend:
[1] = tested on: P. falciparum male gametocytes; assay: P. falciparum Dual Gamete Formation Assay (PfDGFA), male readout (exflagellation); assay type: cell-based, Plasmodium falciparum NF54; conditions: for Selectivity Ratio M: HepG2 Tox50 versus male IC50
In short: (§1)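 Mature NF54 gametocytes (day 14) were incubated with compound for 24 h at 37°C under 1% O2/3% CO2, then triggered with xanthurenic acid ookinete medium plus Cy3-anti-Pfs25. Exflagellation was imaged by brightfield; after a further 24 h at 28°C, Pfs25-positive female gametes were imaged by fluorescence and counted by automated image analysis.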

HepG2 cells = assay: HepG2 cytotoxicity counter-screen; conditions: for Mean TOX: mean of the HepG2 TOX50 values; for DGFA Tox50 HepG2: HepG2 value reported with the DGFA screen; for Tox50: cytotoxic activity against HepG2 cells
[2] = tested on: P. falciparum female gametocytes; assay: P. falciparum Dual Gamete Formation Assay (PfDGFA), female readout (Pfs25-positive female gametes); assay type: cell-based, Plasmodium falciparum NF54; conditions: for Selectivity ratio F: HepG2 Tox50 versus female IC50
In short: as §1

[3] = this study, read-out: Pf DGFA IC50 MALE
[4] = this study, read-out: Pf DGFA IC50 FEM
[5] = 2µM, 24h preincubation with gametocytes, average of replicates
[6] = 2µM, 24h preincubation with gametocytes, replicate R1
[7] = 2µM, 24h preincubation with gametocytes, replicate R3
[8] = 2µM, 24h preincubation with gametocytes, replicate R4
[9] = Plasmodium falciparum, PfDGFA, 24 h incubation with gametocytes before induction, exflagellation readout, read-out: Male IC50
[10] = Plasmodium falciparum, PfDGFA, 24 h incubation with gametocytes before induction, female gamete readout, read-out: Female IC50

Compound	Cytotox ratio Pf Male [1]	IC50 [1, 3] [nM]	Mean TOX (HepG2 cells) [µM]	Cytotox ratio Pf Female [2]	IC50 [2, 4] [µM]	further results
C=CCNc1cc(-c2ccccn2)nc(-c2ccccn2)n1 [TC01]	13.8	910	12.58	2.6	4.89	
c1ccc2[nH]c(CN(Cc3nc4ccccc4[nH]3)Cc3nc4ccccc4[nH]3)nc2c1 [TC03]	14.8	6750	100.00	10.0		DGFA Tox50 HepG2 (HepG2 cells): 100 µM
FC(F)(F)c1cccc(NC(=S)NN=Cc2ccccn2)c1 [TC06]	142.9	700	100.00	142.9	0.7	DGFA Tox50 HepG2 (HepG2 cells): 100 µM
O=C(Cc1cccc(O)c1)NCC(Cc1ccc(O)cc1)c1ccccc1 (stereo not shown) [TC08]	58.1	1720	100.00	10.0		DGFA Tox50 HepG2 (HepG2 cells): 100 µM
N=C(N)NCCN(Cc1ccccc1)c1ccc(Cl)cc1 [TC09]	72.7	670	48.68	7.5	6.5	
O=C(NC1CCN(Cc2ccccc2)CC1)c1cc(C(=O)NC2CCN(Cc3ccccc3)CC2)cc(C(=O)NC2CCN(Cc3ccccc3)CC2)c1 [TC20]	13.0	7710	100.00	10.0		DGFA Tox50 HepG2 (HepG2 cells): 100 µM
CC(C)S(=O)(=O)N1CCN(Cc2ccc3c(c2)nc(NC(=O)c2ccsc2)n3C[C@H](O)c2ccccc2)CC1 [TC25]	20.7	410	8.48	0.848		
Oc1cccc(CNCCCN(Cc2ccccc2)c2ccccc2)c1 [TC30]	13.1	1060	13.84	1.8	7.74	
Fc1ccc2[nH]c(-c3ccc(-c4ccc(CNCCN5CCNCC5)cc4)cc3)nc2c1.O=C(O)C(F)(F)F [TC31]	12.1	2390	28.84	2.9		
COc1cc2c(cc1S(=O)(=O)c1ccc(COc3ccc(C(F)(F)F)cc3)cc1)CNCC2.Cl [TC36]	12.0	1380	16.60	1.7		
O=C(c1ccc(-c2cnc3[nH]cc(-c4ccc(C(=O)N5CCOCC5)cc4)c3c2)cc1)N1CCOCC1 [TC43]	65.9	440	28.99	2.9		
CN1CCC(NCc2ccc(-c3cnc(NCc4ccccc4)nc3)cc2)CC1.O=C(O)C(F)(F)F [TC47]	11.6	960	11.10	1.7	6.57	
Cc1cccc(Nc2nc(NCCCCN)nc3cc[nH]c(=O)c23)c1.O=C(O)C(F)(F)F [TC51]	75.4	380	28.66	2.9		
CCCCNS(=O)(=O)c1ccc(NC(=O)c2cc([N+](=O)[O-])ccc2Cl)cc1 [TC52]	270.3	370	100.00	13.2	7.56	DGFA Tox50 HepG2 (HepG2 cells): 100 µM
Cc1ccc(C)c(S(=O)(=O)NCC2CCN(Cc3ccc(O)cc3)CC2)c1.O=C(O)C(F)(F)F [TC53]	54.7	1490	81.55	8.2		
CN1CCN(c2ccc(Nc3c4ccccc4nc4ccccc34)cc2)CC1 [TC57]	45.2	590	26.65	3.0	8.84	
CCn1c(-c2nonc2N)nc2c(-c3ccccc3)ncc(OCCCNCCCN3CCOCC3)c21.O=C(O)C(F)(F)F [TC62]	11.8	1370	16.12	2.5	6.49	
COCCn1c(Sc2ncnc3sccc23)nc2ccccc21 [TC65]	81.3	1230	100.00	94.3	1.06	DGFA Tox50 HepG2 (HepG2 cells): 100 µM
CS(=O)(=O)Cc1ccc(Nc2ncc(Cl)c(Nc3cccnc3C(N)=O)n2)cc1.Cl [TC68]	16.0	6250	100.00	10.0		DGFA Tox50 HepG2 (HepG2 cells): 100 µM
Cl.O=C1Nc2ccc3ncccc3c2/C1=C/Nc1ccc(N2CCN(CCO)CC2)cc1 [TC71]	225.8	150	33.87	3.4		
CN(C)c1ccnc2ccc(NC(=O)Nc3ccnc4ccccc34)cc12 [TC74]	13.3	1700	22.68	3.8	5.92	
CC(CO)(CO)NCc1cc2c3ccccc3c(CNC(C)(CO)CO)cc2c2ccccc12.CS(=O)(=O)O [TC76]	15.0	870	13.04	2.7	4.79	
CNC(=S)NN=C(C)c1ccccn1 [TCMDC-123475]						Average inhibition male (%) [1, 5]: 95.4%; % inhibition male (individual replicates) R1 [1, 6]: 96.5%; % inhibition male (individual replicates) R3 [1, 7]: 96.2%; % inhibition male (individual replicates) R4 [1, 8]: 91.6%; Selectivity Ratio M [1]: 0.29; IC50 ([1]; PfDGFA, 24 h incubation with gametocytes before induction, exflagellation readout, read-out: Male IC50): 450 nM; Tox50 (HepG2 cells): 0.13 µM; Average inhibition female (%) [2, 5]: 52.8%; % inhibition female (individual replicates) R1 [2, 6]: 38.7%; % inhibition female (individual replicates) R3 [2, 7]: 43.6%; % inhibition female (individual replicates) R4 [2, 8]: 50.7%; Selectivity ratio F [2]: 0.49; IC50 ([2]; PfDGFA, 24 h incubation with gametocytes before induction, female gamete readout, read-out: Female IC50): 0.27 µM
O=C1SC(=Cc2ccc(O)c(O)c2)C(=O)N1c1ccccc1 [TCMDC-123491]			36.79			Selectivity Ratio M [1]: 21.44; Cytotox ratio Pf Male ([1]; Mean TOX HepG2 over DGFA IC50 MALE, GREEN = >10-fold, RED = <10-fold): 21.4; inhibition at 2 µM ([1]; Plasmodium falciparum, 2µM, 24h preincubation with gametocytes, average of replicates, read-out: Average inhibition male (%)): 96.8%; inhibition at 2 µM ([1]; Plasmodium falciparum, 2µM, 24h preincubation with gametocytes, replicate R1, read-out: % inhibition male (individual replicates) R1): 96%; inhibition at 2 µM ([1]; Plasmodium falciparum, 2µM, 24h preincubation with gametocytes, replicate R2, read-out: % inhibition male (individual replicates) R2): 93.5%; inhibition at 2 µM ([1]; Plasmodium falciparum, 2µM, 24h preincubation with gametocytes, replicate R3, read-out: % inhibition male (individual replicates) R3): 98.6%; inhibition at 2 µM ([1]; Plasmodium falciparum, 2µM, 24h preincubation with gametocytes, replicate R4, read-out: % inhibition male (individual replicates) R4): 98.9%; IC50 [1, 9]: 1720 nM; Tox50 (HepG2 cells): 36.79 µM; Selectivity ratio F [2]: 4.36; Cytotox ratio Pf Female ([2]; Mean TOX HepG2 over DGFA IC50 FEM, GREEN = >10-fold, RED = <10-fold): 4.4; inhibition at 2 µM ([2]; Plasmodium falciparum, 2µM, 24h preincubation with gametocytes, average of replicates, read-out: Average inhibition female (%)): 28.5%; inhibition at 2 µM ([2]; Plasmodium falciparum, 2µM, 24h preincubation with gametocytes, replicate R1, read-out: % inhibition female (individual replicates) R1): 24.6%; inhibition at 2 µM ([2]; Plasmodium falciparum, 2µM, 24h preincubation with gametocytes, replicate R2, read-out: % inhibition female (individual replicates) R2): 17.5%; inhibition at 2 µM ([2]; Plasmodium falciparum, 2µM, 24h preincubation with gametocytes, replicate R3, read-out: % inhibition female (individual replicates) R3): 26.8%; inhibition at 2 µM ([2]; Plasmodium falciparum, 2µM, 24h preincubation with gametocytes, replicate R4, read-out: % inhibition female (individual replicates) R4): 45.3%; IC50 [2, 10]: 8.43 µM
COc1ccc(C[C@H](N)C(=O)N[C@H]2[C@@H](O)[C@H](n3cnc4c(N(C)C)ncnc43)O[C@@H]2CO)cc1 [TCMDC-123493]						Selectivity Ratio M [1]: 3.72; inhibition at 2 µM ([1]; Plasmodium falciparum, PfDGFA at 2µM, 24h preincubation with gametocytes, average of replicates, read-out: Average inhibition male (%)): 76.8%; inhibition at 2 µM ([1]; Plasmodium falciparum, PfDGFA at 2µM, 24h preincubation with gametocytes, replicate R1, read-out: % inhibition male (individual replicates) R1): 75.8%; inhibition at 2 µM ([1]; Plasmodium falciparum, PfDGFA at 2µM, 24h preincubation with gametocytes, replicate R2, read-out: % inhibition male (individual replicates) R2): 91.9%; inhibition at 2 µM ([1]; Plasmodium falciparum, PfDGFA at 2µM, 24h preincubation with gametocytes, replicate R3, read-out: % inhibition male (individual replicates) R3): 54%; inhibition at 2 µM ([1]; Plasmodium falciparum, PfDGFA at 2µM, 24h preincubation with gametocytes, replicate R4, read-out: % inhibition male (individual replicates) R4): 85.6%; IC50 [1, 9]: 910 nM; HitlevelM ([1]; number of replicates with >50% inhibition in the male readout, 2µM): 4; Tox50 (HepG2 cells): 3.39 µM; Selectivity ratio F [2]: 0.66; inhibition at 2 µM ([2]; Plasmodium falciparum, PfDGFA at 2µM, 24h preincubation with gametocytes, average of replicates, read-out: Average inhibition female (%)): 37.8%; inhibition at 2 µM ([2]; Plasmodium falciparum, PfDGFA at 2µM, 24h preincubation with gametocytes, replicate R1, read-out: % inhibition female (individual replicates) R1): 41.5%; inhibition at 2 µM ([2]; Plasmodium falciparum, PfDGFA at 2µM, 24h preincubation with gametocytes, replicate R2, read-out: % inhibition female (individual replicates) R2): 55%; inhibition at 2 µM ([2]; Plasmodium falciparum, PfDGFA at 2µM, 24h preincubation with gametocytes, replicate R3, read-out: % inhibition female (individual replicates) R3): 20.7%; inhibition at 2 µM ([2]; Plasmodium falciparum, PfDGFA at 2µM, 24h preincubation with gametocytes, replicate R4, read-out: % inhibition female (individual replicates) R4): 33.9%; IC50 [2, 10]: 5.14 µM; HitlevelF ([2]; number of replicates with >50% inhibition in the female readout, 2µM): 1
